This assay has as its system 616215-338-R-J1-PDC complex spheroids, viability % test/control. Put plainly: Anticancer human tumor 616215-338-R-J1-PDC patient-derived colon adenocarcinoma cell line growth inhibition [CLK]. The following applies: for viability, T/C: stronger effect = lower value; for IC50: curve of compound. The source says: A high-throughput screen of multi-cell type tumor spheroids was designed to identify active combinations of […] and targeted small molecules. Complex spheroids include a stromal component modeled by human endothelial cells (HUVEC) and fibroblasts modeled by human mesenchymal stem cells (MSCs). The concentration ranges selected for each drug and investigational agent were based upon clinically achievable concentrations if the clinical Cmax of the agent was known.
Compounds. The drugs and investigational agents: cirtuvivint (SM08502; NSC835563), CC-671 (NSC850746), vemurafenib (NSC761431), tapotoclax (NSC804041), sotorasib (NSC818433), adagrasib (NSC831453), MRTX-1133 (NSC836407), BAY2416964 (NSC825713), copanlisib (NSC816437), inavolisib (NSC800729), abemaciclib (NSC768073), osimertinib (NSC779217), entinostat (NSC756642), eltanexor (KPT-8602, NSC794443), venetoclax (NSC766270), ceralasertib (NSC777638), bortezomib (NSC756655), olaparib (NSC753686), talazoparib (NSC767125), alisertib (NSC759677), peposertib (NSC802822), gemcitabine (NSC613327), 5-fluorouracil (NSC19893), SN-38 (NSC673596), oxaliplatin (NSC266046), paclitaxel (NSC125973), and doxorubicin (NSC123127), were obtained from the National Cancer Institute (NCI) Developmental Therapeutics Program Chemical Repository. The FDA-approved anticancer drug set is available from the Developmental Therapeutics Program at https://dtp.cancer.gov/organization/dscb/obtaining/available plates.htm. […] The stock solutions were prepared in dimethyl sulfoxide (DMSO, Sigma-Aldrich, St. Louis, MO, cat. D2650), except for the platinum complexes which were prepared in saline (Quality Biological, Gaithersburg, MD, cat. 114-055-101), at 800-fold the tested concentration and stored at -70 degrees C prior to their use. All drugs and investigational agents were tested over a range starting from a high concentration at or near the clinical Cmax and decreasing in half-log increments. If the clinical Cmax for an agent had not been determined, the highest concentration tested was 10 microM.
Cell Culture. All cells were maintained in an incubator at 37 degrees C and 5% CO2 with 95% humidity. The PDC lines were cultured according to standard operating procedures established by the NCI PDMR. Briefly, all PDCs were thawed and cultured in Matrigel-coated flasks prepared with a working solution of 1X Ham's F-12 nutrient mix, without supplementation (Invitrogen, Waltham, MA, cat. 11765054), 100 U/mL penicillin-streptomycin (Invitrogen, cat. 15140122), and 2.5% Matrigel (Corning Inc., Corning, NY, cat. 354248) for the first three passages. The 947758-054-R-J2-PDC line was cultured in 6B/Colon 1A media, which includes advanced DMEM/F-12 (Thermo Fisher Scientific, cat. 12634028), 10 mM HEPES (Thermo Fisher Scientific, cat. 15630080), 1X GlutaMAX supplement (Thermo Fisher Scientific, cat. 35050061), 0.1 mg/mL primocin (InvivoGen, cat. ant-pm-2), 10% defined fetal bovine serum, heat inactivated (HyClone Laboratories Inc., cat. SH30070.03HI), 1.25 mM N-Acetyl-L-cysteine (Sigma-Aldrich, cat. A9165), 10 mM nicotinamide (Sigma-Aldrich, cat. N0636), 1X B-27 supplement (Thermo Fisher Scientific, cat. 17504044), 1X N-2 supplement (Thermo Fisher Scientific, cat. 17502048), and 10 microM Y-27632 dihydrochloride (Tocris Bioscience, cat. 1254). The 876862-298-R-J1-PDC was cultured in 6E media, which includes all 6B/Colon 1A media components plus 50% L-WRN conditioned media (ATCC, cat. CRL-3276), 50 ng/mL recombinant human EGF recombinant protein (hEGF; Thermo Fisher Scientific, cat. PHG0311), 10 ng/mL recombinant human fibroblast growth factor 10 (hGFG-10; PeproTech, cat. 100-26), 1 ng/mL recombinant human fibroblast growth factor 2 (hFGF-2; PeproTech, cat. 100-18B), and 1 µM prostaglandin E2 (PGE2; Tocris, cat. 2296). The 227483-062-R1-J1-PDC line was cultured in Panc media, containing all 6E components except hFGF-2, with the addition of 500 nM SB-431542 (Selleckchem, cat. S1067) and 10 nM gastrin (Tocris, cat. 3006). […]

SMILES strings stand for the structures. “And” between values parts separate entries of the source, which are not always exact repeats. Equal entries are not always repeated.
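Also: spheroids exposed to agents for 7 days.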
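For viability, T/C in this document: 100% = DMSO vehicle wells.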

For orientation: viability, T/C means the result in the treated group divided by that in the control group, in per cent. For orientation: IC50 means the concentration that gives 50% inhibition. With `CC(=O)O[C@H]1C(=O)[C@@]2(C)[C@H]([C@H](OC(=O)c3ccccc3)[C@]3(O)C[C@H](OC(=O)[C@H](O)[C@@H](NC(=O)c4ccccc4)c4ccccc4)C(C)=C1C3(C)C)[C@]1(OC(C)=O)CO[C@@H]1C[C@@H]2O`, the IC50 was < 31.6 nM. The viability, T/C (compound 0.0316 µM) is 32.9% and 37.9%. For the same molecule, the viability, T/C (compound 0.1 µM) is 22.2% and 31.7%. Moreover, the viability, T/C (compound 0.316 µM) is 18.2% and 24%. Further, the viability, T/C (compound 1 µM) was 15.4% and 23.8%. Also, the viability, T/C (compound 3.16 µM) was 19.5% and 23.1%. For the same molecule, the viability, T/C (compound 10 µM) was 24% and 28.7%.

Regarding `CC1(C)CCC(CN2CCN(c3ccc(C(=O)NS(=O)(=O)c4ccc(NCC5CCOCC5)c([N+](=O)[O-])c4)c(Oc4cnc5[nH]ccc5c4)c3)CC2)=C(c2ccc(Cl)cc2)C1`, the IC50 is 5250 nM and > 10000 nM. In addition, the viability, T/C (compound 0.0316 µM) was 88.4% and 102%. Moreover, the viability, T/C (compound 0.1 µM) was 95.6% and 102%. Under “compound 0.316 µM”, the viability, T/C was 97.5% and 98.5%. Moreover, the viability, T/C (compound 1 µM) was 90.2% and 96.7%. Further, for the setting “compound 3.16 µM”, the viability, T/C is 86.7% and 87.4%.

Regarding `CC1COCCN1c1cc(C2(S(C)(=N)=O)CC2)nc(-c2ccnc3[nH]ccc23)n1` (configuration not stated), the IC50 was > 10000 nM. Moreover, the viability, T/C (compound 0.0316 µM) was 94.9% and 102%. Further, the viability, T/C (compound 0.1 µM) was 107% and 96.5%. For the same molecule, the viability, T/C (compound 0.316 µM) is 97.7% and 96.1%. The viability, T/C (compound 1 µM) is 99.8% and 94.2%. Besides, the viability, T/C (compound 3.16 µM) is 105% and 106%. Besides, where the note is “compound 10 µM”, the viability, T/C was 78.6% and 92.2%.

For the molecule `COc1ccc([C@@H](O)c2cc(-c3ncnc4cc(N5CCOCC5)ccc34)c(F)cc2Cl)nn1`, the IC50 was > 10000 nM. Also, the viability, T/C (compound 0.0316 µM) was 102% and 93.5%. For the same molecule, the viability, T/C (compound 0.1 µM) is 106% and 104%. For the same molecule, the viability, T/C (compound 0.316 µM) was 111% and 108%. Moreover, the viability, T/C (compound 1 µM) is 107% and 99.3%. Further, the viability, T/C (compound 3.16 µM) is 112% and 118%. Also, for the setting “compound 10 µM”, the viability, T/C was 77.8% and 78.4%.

For the molecule `COc1cccc2c1C(=O)c1c(O)c3c(c(O)c1C2=O)CC(O)(C(=O)CO)CC3OC1CC(N)C(O)C(C)O1` (configuration not stated), the IC50 is 142 nM and 299 nM. In addition, the viability, T/C (compound 0.0316 µM) was 102% and 112%. In addition, under “compound 0.1 µM”, the viability, T/C is 45.9% and 64.2%. Also, the viability, T/C (compound 0.316 µM) was 40.4% and 49.8%. Moreover, for the setting “compound 1 µM”, the viability, T/C was 24% and 41.3%. Moreover, the viability, T/C (compound 3.16 µM) was 0.74% and 0.78%. In addition, for the setting “compound 10 µM”, the viability, T/C was 0.16% and 0.24%.

As for `Nc1ccccc1NC(=O)c1ccc(CNC(=O)OCc2cccnc2)cc1`, the concentration for half-maximal inhibition (IC50) was 3690 nM and 5380 nM. For the same molecule, the viability, T/C (compound 0.0316 µM) was 102% and 86.2%. Besides, the viability, T/C (compound 0.1 µM) was 98.2% and 95.1%. For the same molecule, under “compound 0.316 µM”, the viability, T/C is 101% and 81.6%. For the setting “compound 1 µM”, the viability, T/C was 107% and 92.8%. Further, the viability, T/C (compound 3.16 µM) was 55.6% and 80.4%. Moreover, the viability, T/C (compound 10 µM) is 13.5% and 14.7%.

As to `Nc1ccn(C2OC(CO)C(O)C2(F)F)c(=O)n1` (configuration not stated), the IC50 was < 31.6 nM. The viability, T/C (compound 0.0316 µM) was 13.9% and 20.9%. Also, where the note is “compound 0.1 µM”, the viability, T/C is 11.6% and 15.4%. The viability, T/C (compound 0.316 µM) is 9.93% and 15.4%. The viability, T/C (compound 1 µM) is 13.5% and 17%. Besides, the viability, T/C (compound 3.16 µM) was 9.75% and 16.1%. The viability, T/C (compound 10 µM) is 11.3% and 14.7%.

In the case of `O=C(c1cc(Cc2n[nH]c(=O)c3ccccc23)ccc1F)N1CCN(C(=O)C2CC2)CC1`, the IC50 is > 10000 nM. Where the note is “compound 0.0316 µM”, the viability, T/C is 96.4% and 102%. Also, the viability, T/C (compound 0.1 µM) was 96.1% and 94.5%. For the setting “compound 0.316 µM”, the viability, T/C is 87.9% and 96.6%. Where the note is “compound 1 µM”, the viability, T/C was 88.2% and 93.6%. Also, the viability, T/C (compound 3.16 µM) was 106% and 99.5%. Where the note is “compound 10 µM”, the viability, T/C was 97.4% and 99.5%.

Consider `O=c1[nH]cc(F)c(=O)[nH]1`, for which the 50% inhibitory concentration (IC50) is 672 nM and 654 nM. The viability, T/C (compound 0.0316 µM) was 94% and 97.5%. Moreover, the viability, T/C (compound 0.1 µM) is 95.6% and 111%. Where the note is “compound 0.316 µM”, the viability, T/C is 65.3% and 61.7%. Further, the viability, T/C (compound 1 µM) is 44.4% and 46.8%. Where the note is “compound 3.16 µM”, the viability, T/C is 35.2% and 39.2%. For the same molecule, the viability, T/C (compound 10 µM) was 39.2% and 43.4%.

These data come from PubChem BioAssay AID2060610 (Molecular Pharmacology Branch, DTP, NCI, 2025).
